Broadly, the inhibition is the drop in the measured response relative to a control, in per cent. What is called EC50 is the concentration needed to bring the measured effect to its halfway point.

One experiment addresses c-Src (Homo sapiens (Human), UniProt P12931). Description: TR-FRET c-Src kinase assay. As to conditions: ATP 50 μM; for inhibition at 0.1 µM: read-out: c-SRC % inhibition at 100 nM, 100 nM; for inhibition at 1 µM: read-out: c-SRC % inhibition at 1 μM. In kind it is biochemical. The protocol:
(§1) Compounds were screened in the TR-FRET assay for JAK2 and c-Src kinase inhibition. Ultra light poly GT (Perkin Elmer) was used as the substrate for JAK2 and c-Src with the ATP concentration of 10 μM and 50 μM, respectively. […] The dose-response curve fitting was done using GraphPad Prism software.
A general note: TR-FRET usually uses a lanthanide donor and a delayed reading to cut background.

For the next experiment, the target named is JAK2 (Homo sapiens (Human), UniProt O60674). Description: TR-FRET JAK2 kinase assay. In kind it is biochemical. As to conditions: ATP 10 μM; for inhibition at 0.1 µM: read-out: JAK2 % inhibition at 100 nM, 100 nM; for inhibition at 1 µM: read-out: JAK2 % inhibition at 1 μM. The protocol:
as §1

Another experiment relates to Mda-Mb-231 cells. Put plainly: Cell viability assay (XTT assay), Mda-Mb-231. Type of experiment: cell-based. As to conditions: Homo sapiens, 72 hrs. As to the method: Mda-Mb-231 or A549 cells were seeded onto a 96-well micro plate. Next day compounds were added to cells and incubated for 72 hrs. Compound treatment was done in triplicates. After 72 hrs cell culture media was aspirated from the wells and XTT working solution was added and plates were incubated for 2-5 hrs. The absorbance of the samples was measured with a spectrophotometer at a wavelength of 465 nm. EC50 values were calculated using Graphpad Prism. Tumor cell lines used in the examples of the present invention were procured from ATCC. Description of the cell lines is included in the following table: […]
A general note: Tetrazolium assays rely on reduction of a dye to a coloured formazan, in cell work by metabolically active cells.

Another experiment deals with pStat3. Put plainly: In-Cell-Western blot assay for pStat3 (ICW) in A431 cells. Type of experiment: cell-based. As to conditions: Homo sapiens, A-431, 2 hrs, read-out: pSTAT3 inhibition. The protocol: A431 cells were seeded onto a 96-well micro plate. After overnight serum starvation cells were incubated with compounds for 2 hrs. Cells were fixed with 4% paraformaldehyde in PBS and then permeabilized with 0.1% Triton X-100 in PBS (PBST). Cells were blocked with 5% BSA in PBST for 2 hrs, followed by overnight incubation with phospho Stat3 antibody. Cells were washed and incubated with europium-labeled anti-rabbit secondary antibody for 2 hrs. After washing enhancement solution was added to the wells. The micro-plate was read on the Victor instrument at the Europium setting. The Hoechst readings were used to normalize for cell number. IC50 values were calculated with the normalized europium values using Graphpad Prism.

c-Src, sequence (P12931 whole entry, looked up): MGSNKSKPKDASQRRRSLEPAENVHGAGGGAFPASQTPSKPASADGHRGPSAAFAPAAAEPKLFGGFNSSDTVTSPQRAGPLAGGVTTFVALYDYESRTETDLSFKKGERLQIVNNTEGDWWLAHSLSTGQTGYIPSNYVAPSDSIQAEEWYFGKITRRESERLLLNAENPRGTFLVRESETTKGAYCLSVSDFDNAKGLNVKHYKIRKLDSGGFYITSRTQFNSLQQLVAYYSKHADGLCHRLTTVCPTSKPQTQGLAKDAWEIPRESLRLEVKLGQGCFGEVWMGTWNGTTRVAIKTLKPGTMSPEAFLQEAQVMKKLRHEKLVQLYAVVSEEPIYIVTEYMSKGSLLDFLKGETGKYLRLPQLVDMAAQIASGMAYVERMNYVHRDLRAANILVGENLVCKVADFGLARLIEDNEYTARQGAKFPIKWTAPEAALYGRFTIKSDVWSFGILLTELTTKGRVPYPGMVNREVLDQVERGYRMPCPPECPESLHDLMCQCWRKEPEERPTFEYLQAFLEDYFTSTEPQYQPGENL
JAK2, sequence (O60674 whole entry): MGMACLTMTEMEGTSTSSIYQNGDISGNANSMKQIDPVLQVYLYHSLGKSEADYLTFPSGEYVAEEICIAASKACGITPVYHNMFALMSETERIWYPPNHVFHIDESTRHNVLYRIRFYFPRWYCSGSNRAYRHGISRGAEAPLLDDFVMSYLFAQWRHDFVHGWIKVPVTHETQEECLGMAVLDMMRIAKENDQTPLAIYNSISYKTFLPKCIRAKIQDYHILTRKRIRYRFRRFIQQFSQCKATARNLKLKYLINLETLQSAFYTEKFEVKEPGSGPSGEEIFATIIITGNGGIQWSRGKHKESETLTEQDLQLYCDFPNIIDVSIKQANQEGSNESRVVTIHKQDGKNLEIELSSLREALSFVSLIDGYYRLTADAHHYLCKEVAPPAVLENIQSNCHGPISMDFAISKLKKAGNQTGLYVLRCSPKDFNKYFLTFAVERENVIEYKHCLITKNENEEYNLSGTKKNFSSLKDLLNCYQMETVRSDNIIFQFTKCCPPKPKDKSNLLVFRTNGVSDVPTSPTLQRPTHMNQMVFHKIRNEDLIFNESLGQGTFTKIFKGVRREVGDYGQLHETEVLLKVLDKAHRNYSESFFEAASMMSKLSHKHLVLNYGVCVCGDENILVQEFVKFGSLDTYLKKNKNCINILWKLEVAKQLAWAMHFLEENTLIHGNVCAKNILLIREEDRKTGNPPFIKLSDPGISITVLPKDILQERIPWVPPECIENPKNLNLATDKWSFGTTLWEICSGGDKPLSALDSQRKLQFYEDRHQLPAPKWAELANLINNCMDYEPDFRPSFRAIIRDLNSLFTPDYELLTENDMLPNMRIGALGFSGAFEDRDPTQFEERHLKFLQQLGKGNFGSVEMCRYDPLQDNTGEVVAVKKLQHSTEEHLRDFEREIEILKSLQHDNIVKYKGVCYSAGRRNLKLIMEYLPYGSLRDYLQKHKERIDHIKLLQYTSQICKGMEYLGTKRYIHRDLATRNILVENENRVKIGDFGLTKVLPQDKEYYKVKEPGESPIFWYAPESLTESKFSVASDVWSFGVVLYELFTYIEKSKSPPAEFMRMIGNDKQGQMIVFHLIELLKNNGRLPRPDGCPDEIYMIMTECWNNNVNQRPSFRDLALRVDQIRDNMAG

With `Cc1ccc(NC(=O)c2cc(C(F)(F)F)ccn2)cc1N1CCc2nc(Nc3ccc(N4CCN(C)CC4)cc3)ncc2C1=O` [Compound 166, 4-Trifluoromethyl-pyridine-2-carboxylic acid (4-methyl-3-{2-[4-(4-methyl-piperazin-1-yl)-phenylamino]-5-oxo-7,8-dihydro-5H-pyrido[4,3-d]pyrimidin-6-yl}-phenyl)-amide], at c-Src, the IC50 was 27 nM, the inhibition at 0.1 µM worked out at 60% and the inhibition at 1 µM was 87%. In addition, at JAK2, the IC50 turned out to be 48 nM and the inhibition at 0.1 µM is 74%. In addition, the inhibition at 1 µM on JAK2 (1 μM) came to 93%.

On to `CNC(=O)c1ccc(Nc2ncc3c(n2)CCN(c2cc(NC(=O)c4cccc(C(F)(F)F)c4)ccc2Cl)C3)cc1` [Compound 176, N-{4-Chloro-3-[2-(4-methylcarbamoyl-phenylamino)-7,8-dihydro-5H-pyrido[4,3-d]pyrimidin-6-yl]-phenyl}- -5-trifluoromethyl-benzamide], for which, at c-Src, the IC50 was 13 nM, the inhibition at 0.1 µM came to 87% and the inhibition at 1 µM amounted to 96%. The compound also came in with an EC50 in the experiment on Mda-Mb-231 cells of 330 nM. For the same compound, at JAK2, the IC50 was 15 nM and the inhibition at 0.1 µM came to 89%. For the same compound, at JAK2 (1 μM), the inhibition at 1 µM was 94%.

`Cc1ccc(NC(=O)c2cc(C(F)(F)F)ccn2)cc1N1CCc2nc(Nc3ccc(N4CCN(C)CC4)cc3)ncc2C1` [Compound 146, 4-Trifluoromethyl-pyridine-2-carboxylic acid (4-methyl-3-{2-[4-(4-methyl-piperazin-1-yl)-phenylamino]-7,8-dihydro-5H-pyrido[4,3-d]pyrimidin-6-yl}-phenyl)-amide]: the IC50 with pStat3 was determined as 350 nM; on c-Src, 6 nM; against JAK2, 5 nM. The compound further yielded an EC50 in the experiment with Mda-Mb-231 cells of 370 nM.

For `Cc1ccc(NC(=O)CC2CCCC2)cc1N1CCc2nc(Nc3ccc(OCCN4CCCC4)cc3)ncc2C1` [Compound 108, 2-Cyclopentyl-N-(4-methyl-3-{2-[4-(2-pyrrolidin-1-yl-ethoxy)-phenylamino]-7,8-dihydro-5H-pyrido[4,3-d]pyrimidin-6-yl}-phenyl)-acetamide], at c-Src, the IC50 amounted to 1 nM, the inhibition at 0.1 µM was found to be 98% and the inhibition at 1 µM was 100%. This compound also yielded an EC50 in the experiment on Mda-Mb-231 cells of 2600 nM. At JAK2, the IC50 is 12 nM and the inhibition at 0.1 µM turned out to be 89%. Further, the inhibition at 1 µM on JAK2 (1 μM) was found to be 98%.

In the case of `CN1CCN(c2ccc(Nc3ncc4c(n3)CCN(c3cc(NC(=O)c5cccc(C(F)(F)F)c5)ccc3Cl)C4)cc2)CC1` [Compound 174, N-(4-Chloro-3-{2-[4-(4-methyl-piperazin-1-yl)-phenylamino]-7,8-dihydro-5H-pyrido[4,3-d]pyrimidin-6-yl}-phenyl)-3-trifluoromethyl-benzamide], the IC50 in the experiment on pStat3 turned out to be 161 nM. Moreover, the results for the inhibition at 0.1 µM on c-Src and at JAK2 were 95% and 94%, respectively. For the same compound, the inhibition at 1 µM on c-Src was found to be 98%; on JAK2 (1 μM) it was 97%.

Regarding `Cc1ccc(NC(=O)CCC(F)(F)F)cc1N1CCc2nc(Nc3ccc(C(=O)N4CCN(C)CC4)cc3)ncc2C1` [Compound 164, 4,4,4-Trifluoro-N-(4-methyl-3-{2-[4-(4-methyl-piperazine-1-carbonyl)-phenylamino]-7,8-dihydro-5H-pyrido[4,3-d]pyrimidin-6-yl}-phenyl)-butyramide], the IC50 is 26 nM against c-Src and 46 nM against JAK2. In addition, the results for the inhibition at 0.1 µM on c-Src and at JAK2 were 70% and 68%, respectively. Moreover, the inhibition at 1 µM on c-Src worked out at 79%; at JAK2 (1 μM) it was 91%.

Turning to `CN1CCN(c2ccc(Nc3ncc4c(n3)CCN(c3cc(NC(=O)c5cc(F)cc(C(F)(F)F)c5)ccc3Cl)C4=O)cc2)CC1` [Compound 172, N-(4-Chloro-3-{2-[4-(4-methyl-piperazin-1-yl)-phenylamino]-5-oxo-7,8-dihydro-5H-pyrido[4,3-d]pyrimidin-6-yl]-phenyl)-3-fluoro-5-trifluoromethyl-benzamide], the inhibition at 0.1 µM was 66% at c-Src and 94% on JAK2. For the same compound, the inhibition at 1 µM at c-Src turned out to be 72%; at JAK2 (1 μM) it was 97%. A half-maximal effect with Mda-Mb-231 cells (EC50) was put at 1840 nM.

On to `Cc1ccc(NC(=O)NC2CCCC2)cc1N1CCc2nc(Nc3ccc(OCCN4CCCC4)cc3)ncc2C1` [Compound 153, 1-Cyclopentyl-3-(4-methyl-3-{2-[4-(2-pyrrolidin-1-yl-ethoxy)-phenylamino]-7,8-dihydro-5H-pyrido[4,3-d]pyrimidin-6-yl}-phenyl)-urea], for which, on c-Src, the inhibition at 0.1 µM came to 98% and the inhibition at 1 µM amounted to 99%. Also, the 50% effective concentration (EC50) in the experiment with Mda-Mb-231 cells was 610 nM. Further, the IC50 on JAK2 is 4 nM.

For the compound `Cc1ccc(NC(=O)c2cc(C(F)(F)F)ccn2)cc1N1CCc2nc(Nc3ccc(C(=O)N4CCN(C)CC4)cc3)ncc2C1=O` [Compound 170, 4-Trifluoromethyl-pyridine-2-carboxylic acid (4-methyl-3-{2-[4-(4-methyl-piperazine-1-carbonyl)-phenylamino]-5-oxo-7,8-dihydro-5H-pyrido[4,3-d]pyrimidin-6-yl}-phenyl)-amide], the inhibition at 0.1 µM at c-Src is 26%; at JAK2, 64%. The figures for the inhibition at 1 µM at c-Src and at JAK2 (1 μM) were 58% and 93%, respectively. On JAK2, this compound yielded an IC50 of 70 nM.

`Cc1ccc(NC(=O)c2cccc(C(F)(F)F)c2)cc1N1CCc2nc(Nc3ccc(C(=O)NC4CCN(C)CC4)nc3)ncc2C1` [Compound 148, 5-{6-[2-Methyl-5-(3-trifluoromethyl-benzoylamino)-phenyl]-5,6,7,8-tetrahydro-pyrido[4,3-d]pyrimidin-2-ylamino}-pyridine-2-carboxylic acid (1-methyl-piperidin-4-yl)-amide]: the IC50 in the experiment on pStat3 amounted to 270 nM. Besides, on c-Src, the IC50 stood at 2.4 nM, the inhibition at 0.1 µM amounted to 99% and the inhibition at 1 µM is 99%. In addition, it took 34 nM to reach a half-maximal effect in the experiment with Mda-Mb-231 cells (EC50).

With `Cc1nc(Nc2ncc(C(=O)Nc3c(C)cccc3Cl)s2)cc(N2CCN(CCO)CC2)n1` [Dasatinib, reference compound], in the experiment on Mda-Mb-231 cells, the 50% effective concentration (EC50) came out at 44 nM. Moreover, the “JAK2 % inhibition at 1 μM” value on JAK2 (1 μM) was determined as 55%.

On to `Cc1ccc(NC(=O)c2cccc(Br)c2)cc1N1CCc2nc(Nc3ccc(N4CCN(C)CC4)cc3)ncc2C1=O` [Compound 58, 3-Bromo-N-(4-methyl-3-{2-[4-(4-methyl-piperazin-1-yl)-phenylamino]-5-oxo-7,8-dihydro-5H-pyrido[4,3-d]pyrimidin-6-yl}-phenyl)-benzamide], for which the IC50 at c-Src turned out to be 19 nM; at JAK2 it was 44 nM. Also, the half-maximal effective concentration (EC50) with Mda-Mb-231 cells is 3820 nM.

For `CNC(=O)c1ccc(Nc2ncc3c(n2)CCN(c2cc(NC(=O)c4cc(F)cc(C(F)(F)F)c4)ccc2Cl)C3)cc1` [Compound 177, N-{4-Chloro-3-[2-(4-methylcarbamoyl-phenylamino)-7,8-dihydro-5H-pyrido[4,3-d]pyrimidin-6-yl]-phenyl}-3-fluoro-5-trifluoromethyl-benzamide], in the experiment with pStat3, the IC50 turned out to be 290 nM. Also, on c-Src, the IC50 came out at 20 nM, the inhibition at 0.1 µM came to 86% and the inhibition at 1 µM was determined as 96%. In the experiment on Mda-Mb-231 cells, this compound came in with a 50% effective concentration (EC50) of 120 nM.

Turning to `Cc1ccc(NC(=O)c2cc(Cl)cc(C(F)(F)F)c2)cc1N1CCc2nc(Nc3ccc(N4CCN(C)CC4)cc3)ncc2C1=O` [Compound 120, 3-Chloro-N-(4-methyl-3-{2-[4-(4-methyl-piperazin-1-yl)-phenylamino]-5-oxo-7,8-dihydro-5H-pyrido[4,3-d]pyrimidin-6-yl}-phenyl)-5-trifluoromethyl-benzamide], at c-Src, the inhibition at 0.1 µM was determined as 94% and the inhibition at 1 µM came out at 95%. For the same compound, the response in the experiment with Mda-Mb-231 cells was half-maximal at 2500 nM (EC50). At JAK2, this compound came in with an IC50 of 36 nM.

`Cc1ccc(NC(=O)c2cc(C(F)(F)F)ccn2)cc1N1CCc2nc(Nc3ccc(C(=O)N4CCN(C)CC4)cc3)ncc2C1` [Compound 167, 4-Trifluoromethyl-pyridine-2-carboxylic acid (4-methyl-3-{2-[4-(4-methyl-piperazine-1-carbonyl)-phenylamino]-7,8-dihydro-5H-pyrido[4,3-d]pyrimidin-6-yl}-phenyl)-amide]: the IC50 in the experiment on pStat3 was 283 nM; on c-Src it was 27 nM; against JAK2 it was 5.3 nM. The inhibition at 0.1 µM was found to be 97% on c-Src and 95% at JAK2. Moreover, the inhibition at 1 µM was 98% on c-Src and 97% at JAK2 (1 μM).

As to `Cc1ccc(NC(=O)CC(C)C(F)(F)F)cc1N1CCc2nc(Nc3ccc(OCCN4CCN(C)CC4)cc3)ncc2C1` (centres unmarked) [Compound 160, 4,4,4-Trifluoro-3-methyl-N-[4-methyl-3-(2-{4-[2-(4-methyl-piperazin-1-yl)-ethoxy]-phenylamino}-7,8-dihydro-5H-pyrido[4,3-d]pyrimidin-6-yl)-phenyl]-butyramide], the IC50 at c-Src is 66 nM; against JAK2 it was 15 nM.

The record behind these values is patent US8962637B2, “Bicyclic compounds and their uses as dual c-SRC/JAK inhibitors” (Debiopharm S.A., priority 2010, dated 2015).
